One experiment deals with EphrinB1-EphB2 (Homo sapiens, UniProt P29323). Description: Octet, immobilized human EphrinB1 binding to human EphB2. On the procedure: (§1) Studies were conducted to confirm that A20 chemicals can effectively target the human Eph/Ephrin proteins. Octet system was used to first characterize the biophysical interactions of the human B class Eph and Ephrin proteins, and then was tested to assess how A20 may disrupt the interactions. Since the human and rodent proteins are highly conserved, and essentially identical, with EphB2 sharing 99.5% identity between human and mouse, with only 5 of ~1,000 amino acids different, any species-specific differences were not anticipated. Therefore, commercially available human EphrinB1-Fc (EB1), EphrinB2-Fc (EB2), and EphrinB3-Fc (EB3) ectodomain proteins were sparsely immobilized onto biosensors and then exposed to 50 nM of soluble human EphB1-His, EphB2-His, and EphB4-His ectodomains for 800 sec association and 1,000 sec dissociation steps with a total of nine different interactions analyzed. In the absence of A20 chemical, the immobilized human EphrinB proteins bound to their appropriate human EphB target proteins; with EphrinB1 only bound EphB1 and EphB2, EphrinB2 bound all three EphB1, EphB2, and EphB4, and EphrinB3 only bound EphB1 and EphB2 (FIG. 19A-19B).
Addition of compound also altered dissociation kinetics. […] This is referred to as the “unsurmountable” component of the Eph-Ephrin interaction (FIG. 21C). Additionally, AUC data was graphed for these runs (FIG. 21D). […]
On the technique in general: In BLI a coated tip is dipped into the sample, and binding shifts an interference pattern.

The target of the next experiment is T1, EphrinB1-EphB1 (Homo sapiens, UniProt P54762).
T1 sequence (P54762 18-540 limits assumed): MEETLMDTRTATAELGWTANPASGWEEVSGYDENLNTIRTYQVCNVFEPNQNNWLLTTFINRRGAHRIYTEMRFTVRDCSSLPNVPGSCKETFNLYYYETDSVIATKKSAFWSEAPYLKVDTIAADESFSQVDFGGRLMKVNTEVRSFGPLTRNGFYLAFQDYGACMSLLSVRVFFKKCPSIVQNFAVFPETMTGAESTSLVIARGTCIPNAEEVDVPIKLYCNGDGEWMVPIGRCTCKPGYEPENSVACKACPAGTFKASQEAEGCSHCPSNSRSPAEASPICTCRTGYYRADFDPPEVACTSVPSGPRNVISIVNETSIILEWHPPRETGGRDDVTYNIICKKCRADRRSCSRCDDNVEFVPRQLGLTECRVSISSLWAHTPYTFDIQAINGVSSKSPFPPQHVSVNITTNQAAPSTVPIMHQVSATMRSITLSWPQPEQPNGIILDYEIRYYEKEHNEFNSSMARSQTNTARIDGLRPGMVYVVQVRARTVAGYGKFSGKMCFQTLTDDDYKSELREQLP
Description: Octet, immobilized human EphrinB1 binding to human EphB1. On the procedure:
as §1
Addition of compound also altered dissociation kinetics. […] This is referred to as the “unsurmountable” component of the Eph-Ephrin interaction (FIG. 21C). Additionally, AUC data was graphed for these runs (FIG. 21D). […] For EB2-EphB4, the dimer:tetramer ratio was 83:8 in the presence of A20 and was not much different from the no compound control run because it is already a strong dimer-driven interaction. […] A similar though more muted effect of A20 on tetramer accumulation was also observed for the other interactions of immobilized human EphrinB binding to soluble human EphB1 and EphB2 ectodomains (FIG. 22). The inhibitory effect of A20 is strongest on the EB2-EphB2 interaction with absolute IC50 reaching 1 μM, followed by the EB2-EphB1 interaction with absolute IC50-10 μM. […]

The subject of experiment [1] is CFA-induced mechanical pain in mice. Description: CFA inflammatory pain, mechanical. In kind it is in vivo, mouse. The conditions noted are these: IP or PO 20 mg/kg. On the procedure: The week prior to injection of CFA, adult mice (>10 weeks age, male or female) were first acclimated to the chambers used in pain assessments and then their left and right hind paws were subjected to thermal (heat) and mechanical (touch) pain measurements to obtain baseline data. Mechanical pain was assessed by placing mice on a wire grid and repeatably testing hind paws for their sensitivity to von Frey (VF) filaments of different stiffnesses with the mechanical withdrawal threshold for each mouse hind paw defined as the minimum gauge filament needed to elicit a reflex. Thermal pain was assessed by placing mice on a glass surface and subjecting their hind paws to an infrared heat source (Hargreaves device) that is connected to a timer to measure how long the animal takes to notice the heat and lift the paw. In these tests, both hind paws of mice were subjected to multiple measurements over a 2-3 hr period to (1) either narrow down the VF filament stiffness threshold to plot the touch pain or (2) to obtain six good thermal response measurements which are averaged to provide the data points for heat pain. […] A total of 12 mice were assessed in any one experiment. […]

The next experiment deals with EphB2, Cos1 cells. Put plainly: ligand:receptor cluster (spot) formation in Cos1 cells, immunofluorescence. Format: cell-based. The settings on record: A20 40 μM; listed as A20. On the procedure: FIG. 14 depicts representative fluorescent images and quantification showing that Cos1 cells exposed to pre-clustered EB2-Fc binds to EphB2 forming spots on the cell (green) that also contain phosphotyrosine (red, arrows).
To assess if A20 would reduce the ability of EphrinB2 to stimulate activation of the EphB tyrosine kinase domain in live cells, Cos1 cells that express endogenous EphB2 were exposed to pre-clustered EB2-Fc ectodomains in the presence or absence of A20 for 30 min. […] Stimulated cells were fixed on the coverslip and subjected to immunofluorescence (IF) with anti-Fc antibodies to detect ligand protein bound to receptor, which leads to formation of circular Eph-Ephrin tetramers that then cluster into large obvious spots on the cell surface by lateral migration through the plasma membrane and also contain anti-phosphotyrosine signal indicating activation of the receptor's kinase domain.

[2] abbreviates: read-out: concentration producing maximum inhibition.

Molecules are shown by their SMILES. “Also recorded” adds a separate entry of the source.

Chain of EphrinB1-EphB2 (P29323 19-543 limits assumed): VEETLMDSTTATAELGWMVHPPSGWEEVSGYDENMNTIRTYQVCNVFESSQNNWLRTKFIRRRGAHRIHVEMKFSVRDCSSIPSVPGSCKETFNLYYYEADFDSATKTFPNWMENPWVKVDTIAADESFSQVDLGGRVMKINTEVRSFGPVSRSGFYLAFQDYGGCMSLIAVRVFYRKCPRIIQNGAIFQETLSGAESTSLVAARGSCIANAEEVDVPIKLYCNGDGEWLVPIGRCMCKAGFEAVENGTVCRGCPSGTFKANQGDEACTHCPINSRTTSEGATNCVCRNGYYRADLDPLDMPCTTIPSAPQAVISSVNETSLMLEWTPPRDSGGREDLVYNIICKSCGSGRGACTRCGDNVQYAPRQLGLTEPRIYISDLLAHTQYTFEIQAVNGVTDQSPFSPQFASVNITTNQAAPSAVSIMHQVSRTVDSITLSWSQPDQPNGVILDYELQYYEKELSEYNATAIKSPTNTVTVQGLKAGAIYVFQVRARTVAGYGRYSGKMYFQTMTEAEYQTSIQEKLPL

`Oc1c(Br)cc(CN2CCOCC2)c2cccnc12` [Compound 5, 7-bromo-5-(morpholinomethyl)quinolin-8-ol]: at EphrinB1-EphB2 (EB1-EphB2, A20, read-out: reduction of tetramers), the inhibition at 1 µM was roughly 45%. The IC (maximum) on EphrinB1-EphB2 (setting [2]) and on EphrinB1-EphB1 (setting [2]) was 1 µM each time. Besides, the “reduction of tetramer formation” value at EphrinB1-EphB1 (EB1-EphB1, A20) was found to be 15%. In addition, the “antagonism of EphrinB1/EphrinB3 binding” value at EphrinB1-EphB1 (EphB1/EphB2 with EB1 and EB3, species not given) was “can also antagonize EphB1/EphB2 proteins from binding to EphrinB1 (EB1) and EphrinB3 (EB3) proteins”. Besides, the “mechanical pain” value in experiment [1] is listed as “no increased sensitivity to the VF filaments on average”. Moreover, in experiment [1] (vehicle 2-3), the mechanical pain ratio came out at 1. Also, the “ligand:receptor clusters on cell” value with EphB2, Cos1 cells is reported as “significantly reduced the ability of pre-clustered EB2-Fc to bind/cluster the EphB2 receptor to spots on the cell; also recorded: reduced the number of ligand: receptor clusters per cell”.

The values above are taken from patent US20260374739A1, “SMALL MOLECULAR WEIGHT CHEMICAL COMPOUND TO ANTAGONIZE EPH-EPHRIN TETRAMERIZATION AND INHIBIT BIDIRECTIONAL SIGNALING” (THE BOARD OF REGENTS OF THE UNIVERSITY OF TEXAS SYSTEM, priority 2022, published 2026).
